Results published in PubChem BioAssay AID1745844 (Carcinogenic Potency Database (CPDB), 2022).
Calls of active or inactive are those of the source. The rule behind the calls is not given here.

Tested on: rodent lifetime carcinogenesis bioassay, tumor incidence TD50
Assay: carcinogenic potency in animals, long-term in vivo studies, CPDB compilation (AID 1745844)

## NNc1nc(-c2ccc([N+](=O)[O-])o2)cs1
mouse, strain Swiss, females, in feed, site: any site (literature study), lesion: several types, types named in the paper, dosed 46 weeks, study length 55 weeks
  TD50: 7.57 mg/kg/day
mouse, strain Swiss, females, in feed, site: forestomach, lesion: squamous-cell papilloma, dosed 46 weeks, study length 55 weeks
  TD50: 16.4 mg/kg/day
rat, strain Sprague-Dawley, females, in feed, site: any site (literature study), lesion: several types, types named in the paper, dosed 46 weeks, study length 57 weeks
  TD50: 2.83 mg/kg/day
rat, strain Sprague-Dawley, females, in feed, site: kidney, lesion: several types, types named in the paper, dosed 46 weeks, study length 57 weeks
  TD50: 36.8 mg/kg/day
rat, strain Sprague-Dawley, females, in feed, site: liver, lesion: cystadenoma, dosed 46 weeks, study length 66 weeks
  TD50: 295 mg/kg/day
rat, strain Sprague-Dawley, females, in feed, site: mammary gland, lesion: adenocarcinoma, dosed 46 weeks, study length 57 weeks
  TD50: 7.79 mg/kg/day
rat, strain Sprague-Dawley, females, in feed, site: mammary gland, lesion: adenocarcinoma, dosed 46 weeks, study length 66 weeks
  TD50: 10.9 mg/kg/day
rat, strain Sprague-Dawley, females, in feed, site: mammary gland, lesion: adenofibroma, dosed 46 weeks, study length 57 weeks
  TD50: 25.2 mg/kg/day
rat, strain Sprague-Dawley, females, in feed, site: mammary gland, lesion: several types, types named in the paper, dosed 46 weeks, study length 57 weeks
  TD50: 2.83 mg/kg/day
rat, strain Sprague-Dawley, females, in feed, site: mammary gland, lesion: several types, types named in the paper, dosed 46 weeks, study length 66 weeks
  TD50: 3.66 mg/kg/day
rat, strain Sprague-Dawley, females, in feed, site: salivary gland, lesion: adenocarcinoma, dosed 46 weeks, study length 66 weeks
  TD50: 145 mg/kg/day

## [Cl][Cd][Cl]
hamster, strain Syrian Golden, females, inhaled, site: lung, lesion: one or several types, types not named, dosed 60 weeks, study length 76 weeks
  carcinogen call: negative (inactive)
hamster, strain Syrian Golden, females, inhaled, site: lung, lesion: one or several types, types not named, dosed 64 weeks, study length 76 weeks
  carcinogen call: negative (inactive)
hamster, strain Syrian Golden, males, inhaled, site: lung, lesion: one or several types, types not named, dosed 60 weeks, study length 102 weeks
  carcinogen call: negative (inactive)
hamster, strain Syrian Golden, males, inhaled, site: lung, lesion: one or several types, types not named, dosed 64 weeks, study length 113 weeks
  carcinogen call: negative (inactive)
mouse, strain NMRI, females, inhaled, site: lung, lesion: adenocarcinoma, dosed 42 weeks, study length 82 weeks
  carcinogen call: negative (inactive)
mouse, strain NMRI, females, inhaled, site: lung, lesion: adenocarcinoma, dosed 69 weeks, study length 89 weeks
  carcinogen call: negative (inactive)
mouse, strain NMRI, females, inhaled, site: lung, lesion: adenoma, dosed 42 weeks, study length 82 weeks
  carcinogen call: negative (inactive)
mouse, strain NMRI, females, inhaled, site: lung, lesion: adenoma, dosed 69 weeks, study length 89 weeks
  carcinogen call: negative (inactive)
mouse, strain NMRI, females, inhaled, site: lung, lesion: several types, types named in the paper, dosed 42 weeks, study length 82 weeks
  carcinogen call: negative (inactive)
mouse, strain NMRI, females, inhaled, site: lung, lesion: several types, types named in the paper, dosed 69 weeks, study length 89 weeks
  carcinogen call: negative (inactive)
rat, strain BOR:WISW (Wistar), females, in feed, site: kidney, lesion: one or several types, types not named, dosed 72 weeks, study length 72 weeks
  carcinogen call: negative (inactive)
rat, strain BOR:WISW (Wistar), males, in feed, site: kidney, lesion: one or several types, types not named, dosed 72 weeks, study length 72 weeks
  carcinogen call: negative (inactive)
rat, strain NBL/Cr, males, in drinking water, site: adrenal gland, lesion: pheochromocytoma, benign/malignant, dosed 102 weeks, study length 102 weeks
  TD50: 686 mg/kg/day
rat, strain NBL/Cr, males, in drinking water, site: kidney/pelvis, lesion: transitional-cell carcinoma, dosed 102 weeks, study length 102 weeks
  TD50: 584 mg/kg/day
rat, strain NBL/Cr, males, in drinking water, site: kidney, lesion: lipoma, dosed 102 weeks, study length 102 weeks
  TD50: 584 mg/kg/day
rat, strain NBL/Cr, males, in drinking water, site: kidney, lesion: malignant mesenchymal tumor, dosed 102 weeks, study length 102 weeks
  TD50: 193 mg/kg/day
rat, strain NBL/Cr, males, in drinking water, site: kidney, lesion: several types, types named in the paper, dosed 102 weeks, study length 102 weeks
  TD50: 114 mg/kg/day
rat, strain Wistar W.74, females, in feed, site: any site (literature study), lesion: benign tumor, dosed 104 weeks, study length 105 weeks
  TD50: 44 mg/kg/day (inactive)
rat, strain Wistar W.74, females, in feed, site: any site (literature study), lesion: malignant tumor, dosed 104 weeks, study length 105 weeks
  TD50: 124 mg/kg/day (inactive)
rat, strain Wistar W.74, females, in feed, site: any site (literature study), lesion: several types, types named in the paper, dosed 104 weeks, study length 105 weeks
  TD50: 21.6 mg/kg/day (inactive)
rat, strain Wistar W.74, females, in feed, site: liver, lesion: hepatoma, dosed 104 weeks, study length 105 weeks
  carcinogen call: negative (inactive)
rat, strain Wistar W.74, males, in feed, site: adrenal gland, lesion: pheochromocytoma, dosed 104 weeks, study length 105 weeks
  TD50: 1.33 mg/kg/day (inactive)
rat, strain Wistar W.74, males, in feed, site: any site (literature study), lesion: benign tumor, dosed 104 weeks, study length 105 weeks
  carcinogen call: negative (inactive)
rat, strain Wistar W.74, males, in feed, site: any site (literature study), lesion: malignant tumor, dosed 104 weeks, study length 105 weeks
  TD50: 47.4 mg/kg/day (inactive)
rat, strain Wistar W.74, males, in feed, site: any site (literature study), lesion: several types, types named in the paper, dosed 104 weeks, study length 105 weeks
  carcinogen call: negative (inactive)
rat, strain Wistar W.74, males, in feed, site: liver, lesion: hepatoma, dosed 104 weeks, study length 105 weeks
  carcinogen call: negative (inactive)
rat, strain Wistar, females, inhaled, site: lung, lesion: adenocarcinoma, dosed 26 weeks, study length 126 weeks
  TD50: 0.206 mg/kg/day
rat, strain Wistar, females, inhaled, site: lung, lesion: adenocarcinoma, dosed 78 weeks, study length 134 weeks
  TD50: 0.0253 mg/kg/day
rat, strain Wistar, females, inhaled, site: lung, lesion: adenosquamous carcinoma, dosed 78 weeks, study length 134 weeks
  TD50: 0.106 mg/kg/day
rat, strain Wistar, females, inhaled, site: lung, lesion: alveolar/bronchiolar adenoma, dosed 78 weeks, study length 134 weeks
  TD50: 0.0495 mg/kg/day
rat, strain Wistar, females, inhaled, site: lung, lesion: several types, types named in the paper, dosed 26 weeks, study length 126 weeks
  TD50: 0.0645 mg/kg/day
rat, strain Wistar, females, inhaled, site: lung, lesion: several types, types named in the paper, dosed 78 weeks, study length 134 weeks
  TD50: 0.00971 mg/kg/day
rat, strain Wistar, females, inhaled, site: lung, lesion: squamous-cell tumor, dosed 26 weeks, study length 126 weeks
  TD50: 0.0998 mg/kg/day
rat, strain Wistar, males, in feed, site: all sites, lesion: lymphocytic leukemia, dosed 77 weeks, study length 77 weeks
  carcinogen call: positive
rat, strain Wistar, males, in feed, site: prostate, lesion: adenoma, dosed 77 weeks, study length 77 weeks
  TD50: 56.9 mg/kg/day
rat, strain Wistar, males, in feed, site: testis, lesion: interstitial-cell tumor, benign, dosed 77 weeks, study length 77 weeks
  TD50: 31.6 mg/kg/day
rat, strain Wistar, males, inhaled, site: adrenal gland, lesion: pheochromocytoma, benign/malignant, dosed 78 weeks, study length 134 weeks
  TD50: 0.591 mg/kg/day
rat, strain Wistar, males, inhaled, site: lung, lesion: adenocarcinoma, dosed 26 weeks, study length 130 weeks
  TD50: 0.0294 mg/kg/day
rat, strain Wistar, males, inhaled, site: lung, lesion: adenocarcinoma, dosed 78 weeks, study length 130 weeks
  TD50: 0.00924 mg/kg/day
rat, strain Wistar, males, inhaled, site: lung, lesion: adenocarcinoma, dosed 78 weeks, study length 134 weeks
  TD50: 0.022 mg/kg/day
rat, strain Wistar, males, inhaled, site: lung, lesion: adenoma, dosed 78 weeks, study length 134 weeks
  TD50: 0.563 mg/kg/day
rat, strain Wistar, males, inhaled, site: lung, lesion: adenosquamous carcinoma, dosed 78 weeks, study length 130 weeks
  TD50: 0.165 mg/kg/day
rat, strain Wistar, males, inhaled, site: lung, lesion: alveolar/bronchiolar adenoma, dosed 26 weeks, study length 130 weeks
  TD50: 0.0521 mg/kg/day
rat, strain Wistar, males, inhaled, site: lung, lesion: alveolar/bronchiolar adenoma, dosed 78 weeks, study length 130 weeks
  TD50: 0.0804 mg/kg/day
rat, strain Wistar, males, inhaled, site: lung, lesion: carcinoma, dosed 78 weeks, study length 134 weeks
  TD50: 0.0127 mg/kg/day
rat, strain Wistar, males, inhaled, site: lung, lesion: epidermoid carcinoma, dosed 78 weeks, study length 134 weeks
  TD50: 0.0588 mg/kg/day
rat, strain Wistar, males, inhaled, site: lung, lesion: muco-epidermoid carcinoma, dosed 78 weeks, study length 134 weeks
  TD50: 0.315 mg/kg/day
rat, strain Wistar, males, inhaled, site: lung, lesion: several types, types named in the paper, dosed 26 weeks, study length 130 weeks
  TD50: 0.0106 mg/kg/day
rat, strain Wistar, males, inhaled, site: lung, lesion: several types, types named in the paper, dosed 78 weeks, study length 130 weeks
  TD50: 0.00611 mg/kg/day
rat, strain Wistar, males, inhaled, site: lung, lesion: squamous-cell tumor, dosed 26 weeks, study length 130 weeks
  TD50: 0.0521 mg/kg/day

## CC(C)(C)c1cc(CO)cc(C(C)(C)C)c1O
rat, strain NZBW (hooded black and white strain), females, in feed, site: any site (literature study), lesion: several types, types named in the paper, dosed 104 weeks, study length 104 weeks
  TD50: 3710 mg/kg/day (inactive)
rat, strain NZBW (hooded black and white strain), females, in feed, site: mammary gland, lesion: fibroadenoma, dosed 104 weeks, study length 104 weeks
  TD50: 3710 mg/kg/day (inactive)
rat, strain NZBW (hooded black and white strain), males, in feed, site: any site (literature study), lesion: one or several types, types not named, dosed 104 weeks, study length 104 weeks
  carcinogen call: negative (inactive)
